In PubChem BioAssay (NCI) one finds TGI and GI50 data, which are given here for 14 compounds.

The structures appear in SMILES notation.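 Assay format: 96-well plates, 48-hour exposure. Here, GI50 denotes the concentration required for 50% inhibition of growth. Definition used: TGI = concentration required for complete inhibition of growth.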

Among the test systems are SNB-75 CNS; NCI-H226 lung; A549 NSCLC; HS 578T breast; ACHN renal; SW-620 colon; DU-145 prostate; HCC-2998 colon; MDA-N.
Experiment in all cases: DTP human tumour cell line panel, 48 h

Turning to `CCOP(=O)(OCC)C(Nc1ccc(F)cc1)c1ccccc1` (configuration not stated), the TGI in the test on SNB-75 CNS, in the test on NCI-H226 lung, with A549 NSCLC, in the test on HS 578T breast, in the test on ACHN renal and in the test on SW-620 colon was above 100 µM in each case. Moreover, the TGI in the test on DU-145 prostate, with HCC-2998 colon and with MDA-N was above 100 µM throughout.
Consider `C=CCC(CNC(=O)OCc1ccccc1)OC(=O)OCc1ccccc1` (configuration not stated), for which the TGI in the test with SNB-75 CNS, with NCI-H226 lung, in the test with A549 NSCLC, with HS 578T breast, in the test with ACHN renal and in the test on SW-620 colon was above 100 µM each time. In addition, the TGI in the test with DU-145 prostate, in the test with HCC-2998 colon and in the test with MDA-N was above 100 µM each time.
`Nc1ccc(-c2nc3ccccc3s2)cc1Br`: the TGI – broadly, the concentration giving total growth inhibition – in the test on SNB-75 CNS was above 86.4 µM; with NCI-H226 lung it was above 100 µM; with A549 NSCLC, above 100 µM; in the test on HS 578T breast it was above 100 µM; in the test with ACHN renal, above 100 µM; with SW-620 colon, above 100 µM. Besides, the TGI in the test on DU-145 prostate, in the test with HCC-2998 colon and in the test on MDA-N was above 100 µM each time.
`CN(C)c1ccc(/C=c2/c3cc([N+](=O)[O-])ccc3n3c2cc(-c2ccccc2)[n+]3C)cc1`: the TGI amounted to 3.79 µM in the test on SNB-75 CNS; 36 µM in the test with NCI-H226 lung; 11.7 µM in the test on A549 NSCLC; 7.97 µM in the test on HS 578T breast; 19.6 µM with ACHN renal; 2.75 µM in the test on SW-620 colon. The total growth inhibition concentration (TGI) in the test with DU-145 prostate is 6.68 µM; in the test with HCC-2998 colon, 7.55 µM; in the test on MDA-N, 1.66 µM.
Take `COc1ccc(N2C(=O)C3CC4=CC(=O)C[C@H]4[C@H]32)cc1` (some centres not stated): the total growth inhibition concentration (TGI) with SNB-75 CNS, in the test on NCI-H226 lung, in the test with A549 NSCLC, in the test on HS 578T breast, with ACHN renal and in the test on SW-620 colon was above 100 µM throughout. The values for the TGI in the test on DU-145 prostate, with HCC-2998 colon and in the test with MDA-N were above 100 µM, above 100 µM and 82.1 µM, respectively.
With `O=[N+]([O-])c1cc(Cl)ccc1S(=O)(=O)N1CCCc2cc(Cl)ccc21`, the TGI in the test on SNB-75 CNS, in the test on NCI-H226 lung, with A549 NSCLC, in the test on HS 578T breast, with ACHN renal and in the test with SW-620 colon was above 100 µM in each case. Moreover, the TGI with DU-145 prostate, in the test with HCC-2998 colon and in the test on MDA-N was above 100 µM in each case.
For `NCCCC[C@H](N)C(=O)Nc1ccc(-c2nc3ccccc3s2)cc1Cl`, the TGI with SNB-75 CNS was found to be 26.8 µM; in the test with NCI-H226 lung, 4.62 µM; in the test with A549 NSCLC, 9.08 µM; with HS 578T breast, 51.5 µM; in the test on ACHN renal, 29.3 µM; in the test on SW-620 colon, 23.6 µM. The TGI with DU-145 prostate is 18 µM; in the test on HCC-2998 colon it was above 38.4 µM; in the test on MDA-N, 9.36 µM.
For `CCN(CC)CCC(=O)c1ccc(Oc2ccc(F)cc2)cc1`, the TGI was 47.8 µM with SNB-75 CNS; above 100 µM in the test with NCI-H226 lung; above 100 µM with A549 NSCLC; 60.2 µM in the test with HS 578T breast; 32.4 µM in the test on ACHN renal; 32.7 µM with SW-620 colon. In addition, the concentration for total growth inhibition (TGI) was determined as 53.1 µM in the test with DU-145 prostate, 37.1 µM with HCC-2998 colon and 31.9 µM with MDA-N.
For the compound `Cc1ncc([N+](=O)[O-])n1CCNC(=O)CCCCCn1ccnc1[N+](=O)[O-]`, the TGI in the test with SNB-75 CNS, in the test with NCI-H226 lung, in the test with A549 NSCLC, in the test with HS 578T breast, with ACHN renal and in the test with SW-620 colon was above 100 µM throughout. Also, the total growth inhibition concentration (TGI) with DU-145 prostate, in the test with HCC-2998 colon and with MDA-N was above 100 µM in each case.
For `COc1ccc2c(c1)-c1[nH]c3ccccc3c1CC2`, the concentration for total growth inhibition (TGI) with SNB-75 CNS was determined as 28.9 µM; with NCI-H226 lung it was 26.2 µM; in the test on A549 NSCLC, 30.4 µM; in the test with HS 578T breast, 30.6 µM; in the test on ACHN renal, 32.3 µM; in the test with SW-620 colon it was 31.6 µM. In addition, the TGI in the test on DU-145 prostate turned out to be 33.5 µM; in the test on HCC-2998 colon, 23.6 µM; with MDA-N it was 31.6 µM.
On to `CCOC(=O)CC[C@H](N)C(=O)N[C@H](Cc1ccc(N(CCCl)CCCl)cc1)C(=O)OCC`, for which the TGI was 5.89 µM with SNB-75 CNS; above 47.7 µM in the test with NCI-H226 lung; above 100 µM with A549 NSCLC; 6.64 µM in the test on HS 578T breast; 2.68 µM with ACHN renal; 14.1 µM in the test with SW-620 colon. The concentration for total growth inhibition (TGI) is 3.77 µM with DU-145 prostate, 6.21 µM in the test on HCC-2998 colon and above 43.4 µM with MDA-N. Further, in the test on ACHN renal, the GI50 (in general, the concentration that inhibits growth by half) is 0.499 µM.
Take `CN(C)CCn1nc(N)c2nc3cc(C(F)(F)F)ccc3nc21`: the TGI is 72 µM in the test with SNB-75 CNS; above 100 µM in the test on NCI-H226 lung; above 100 µM with A549 NSCLC; above 100 µM in the test with HS 578T breast; above 100 µM in the test on ACHN renal; above 100 µM in the test with SW-620 colon. The TGI in the test on DU-145 prostate, in the test on HCC-2998 colon and in the test on MDA-N was above 100 µM each time.
Turning to `COc1ccc(C[C@@H]2OC3(C=CC(=O)C=C3)O[C@H]2Cc2ccc(OC)cc2)cc1`, the total growth inhibition concentration (TGI) was 3.04 µM in the test with SNB-75 CNS; 0.652 µM in the test on NCI-H226 lung; 11.2 µM in the test with A549 NSCLC; 23.3 µM with HS 578T breast; 1.16 µM in the test on ACHN renal; 0.383 µM in the test on SW-620 colon. Also, the figures for the TGI in the test with DU-145 prostate, in the test on HCC-2998 colon and in the test on MDA-N were 5.32 µM, 2.95 µM and 1.62 µM, respectively.
For `CC(=O)N(CN1C(=O)CCC1C(=O)O)c1ccccc1Cl` (configuration not stated), the TGI in the test with SNB-75 CNS, with NCI-H226 lung, in the test with A549 NSCLC, in the test with HS 578T breast, in the test with ACHN renal and in the test with SW-620 colon was above 100 µM each time. For the same compound, the TGI with DU-145 prostate, with HCC-2998 colon and in the test with MDA-N was above 100 µM in each case.
